These results are taken from publication PMC7176092, “Development of the first in vivo GPR17 ligand through an iterative drug discovery pipeline: A novel disease-modifying strategy for multiple sclerosis” (PLoS ONE, 2020).

Data set [1] addresses T1, human GPR17 (Homo sapiens, UniProt Q13304).
T1 construct: HA; expressed in transfected cells
The data set can be described thus: [35S]GTPγS binding assay. Format: biochemical. The procedure: [^35S]GTPγS binding assays were carried out as previously described. Briefly, control and astrocytoma 1321N1 cells stably transfected with human pcDNA3.1 (control cells) and human HA-tag GPR17 were homogenized in 5 mM Tris/HCl and 2 mM EDTA (pH 7.4) and centrifuged at 48,000g for 15 min at 4°C. The resulting pellets were washed in 50 mM Tris/HCl and 10 mM MgCl2 (pH 7.4). After protein dosage, aliquots of cell membranes were incubated with increasing concentrations of each investigated ligand (1 pM–10 μM) and GTPγS binding to activated G-proteins was quantified as previously described. Compounds were purchased from two external providers, i.e., Ambinter (Ambinter c/o Greenpharma, Orléans, France http://www.ambinter.com/) and Asinex (http://www.asinex.com/).
For analysis and graphic presentation of [^35S]GTPγS binding data, a nonlinear multipurpose curve fitting computer program (Graph-Pad Prism) was used. All data are presented as the mean ± SEM of three different experiments.
The selected 15 molecules were evaluated in our in-house [^35S]GTPγS functional assay in membranes from cells transfected with human GPR17. […] Moreover, this assay has been already successfully used in the past to measure the ability of both endogenous and novel synthetic compounds to activate GPR17 [25, 31]. All tested molecules were able to potently activate GPR17 with nanomolar/sub-nanomolar affinities. Concentration-response curves obtained for each selected compound are reported in S4 Fig.
For orientation: GTPγS resists hydrolysis and so accumulates on activated G proteins.

Data set [2] in a line: In vivo mouse DMPK study, single 1 mg/kg subcutaneous dose. The procedure: In vivo DMPK studies were performed as an external service by Aptuit (Verona, Italy) according to standard procedures.
Two compounds were tested in a single dose pharmacokinetic (PK) study in mouse, in which a 1 mg/kg single dose solution (15% Ethanol, 85% PEG400) was administered by subcutaneous injection to naïve CD1 male mice from accredited supplier (n = 3), weighed prior to dosing. Blood samples were collected for 8 time-points (0.25, 0.50, 1, 2, 4, 6, 8, 24 hours).
Plasma samples were prepared and diluted according standard in-house procedures and stored at approximately -20°C, pending analysis. Briefly, blood samples were collected into tubes containing anticoagulant (K3EDTA), stored on ice and centrifuged to prepare plasma within 2 hours of collection. Plasma samples were diluted in Hepes Buffer and deproteinised using CH3CN containing rolipram as internal reference compound for positive ion mode, according standard procedure (20 ng/ml). After vortexing and centrifugation (3000 rpm per 10 min), sample supernatants were transferred in 96 well plate and diluted with water for analysis.
Blood concentrations of the tested compounds and their metabolites were detected through Liquid Chromatography-tandem Mass Spectrometry (QTRAP® 4000 LC-MS/MS System, Sciex). The results for each test compound in plasma were subjected to non-compartmental PK analysis using WinNonlin Phoenix v.6.3 for generation of appropriate PK parameters, reported along with graphical representation of the mean plasma concentration profiles over time.
At 24 hours, animals were sacrificed, and brains were collected and processed for measuring compound concentrations through mass spectrometry.

In data set [3] the test system is OPC-DRG co-cultures. In words: In vitro myelination assay. The following applies: 10 nM; CTRL 100%; mean ± S.E.M. It counts as cell-based, rat OPCs, mouse DRG. On the procedure:
OPC-DRG co-cultures were prepared according to a previously described protocol.
DRG explants from E14.5 mice were directly put in culture after being plucked off from embryo spinal cords. Then, they were grown in Neurobasal medium (Life Technologies) in presence of 100 ng/ml nerve growth factor (NGF, Sigma-Aldrich), and in presence of 10 μM fluorodeoxyuridine (FUDR, Sigma-Aldrich) in order to remove all non-neuronal cells.
Purified primary rat OPCs were obtained from mixed glial cultures by orbital shaking for 3 hours. […]
At day 15, OPC/DRG co-cultures treated with either the selected compounds or the vehicle were fixed and treated with rat anti-MBP (Millipore), mouse anti-SMI 31 and mouse anti-SMI 32 (Cell Signaling), followed by the secondary goat anti-rat/-mouse antibody, conjugated to Alexa Fluor 555 or Alexa Fluor 488 (Life Technologies). The quantification of myelin segments was performed following a previously described protocol with ZEISS LSM Image Browser by acquiring 6 random fields of 4–5 coverslips for each experimental condition. […] The amount of myelin per axon (myelination index) was calculated as the ratio between the white pixels area and the green pixels area. […]

The mark [4] stands for this setting: mouse, sc, plasma, 1 mg/kg s.c. single dose, CD1 male mice.

Several values for one entry are separate records, joined by “and”; a condition that tells them apart may be missing. Equal entries are not always repeated. Where two headings read alike, the source gives them in different places.

T1 sequence (Q13304 29-367): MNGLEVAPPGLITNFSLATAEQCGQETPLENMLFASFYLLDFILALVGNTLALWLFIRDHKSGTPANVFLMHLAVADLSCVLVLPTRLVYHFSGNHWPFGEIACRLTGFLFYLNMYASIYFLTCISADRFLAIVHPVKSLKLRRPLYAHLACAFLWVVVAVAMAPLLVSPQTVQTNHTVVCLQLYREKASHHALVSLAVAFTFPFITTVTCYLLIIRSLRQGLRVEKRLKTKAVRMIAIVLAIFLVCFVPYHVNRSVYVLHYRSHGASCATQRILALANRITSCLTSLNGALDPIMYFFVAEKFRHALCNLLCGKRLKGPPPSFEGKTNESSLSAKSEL

In the case of `Cc1cccc(NC(=O)CN2C(=O)CC(c3ccccc3)=Nc3ccccc32)c1C` [Compound 18], in data set [1] (membranes of 1321N1 cells transfected with human GPR17, mean ± SEM of 3 experiments), the EC50 (usually the midpoint of the concentration-response curve) was determined as 1.68 ± 0.1 nM. The “% Emax (ratio vs Emax of the standard)” value in data set [1] (standard LTC4 50 nM set to 100% (¶ compounds)) came to 104.6%. Also, the “Emax (% vs basal)” value in data set [1] (vs basal, mean ± SEM) is 147.5 ± 5.8%. Besides, the “Plasma concentration, individual mice” value in data set [2] (0.50 h, 1 mg/kg s.c., 1 mg/kg) is 29.4 ng/mL and 23.0 ng/mL; in data set [2] (1.00 h, 1 mg/kg s.c., 1 mg/kg), 25.5 ng/mL and 30.8 ng/mL; in data set [2] (2.00 h, 1 mg/kg s.c., 1 mg/kg) it was 6.2 ng/mL and 13.0 ng/mL and 13.3 ng/mL; in data set [2] (4.00 h, 1 mg/kg s.c., 1 mg/kg) it was 0.7 ng/mL and 2.5 ng/mL and 1.5 ng/mL. Also, the concentration at 0.5 h in data set [2] (male, CD1, mouse, plasma, sc, 1 mg/kg, 0.50 h, 1 mg/kg s.c., n=3 mice, read-out: Plasma concentration, Mean) amounted to 23.3 ng/mL; in data set [2] (male, CD1, mouse, plasma, sc, 1 mg/kg, 0.50 h, 1 mg/kg s.c., read-out: Plasma concentration, individual mice), 17.4 ng/mL. Moreover, the concentration at 1 h stood at 25.7 ng/mL in data set [2] (male, CD1, mouse, plasma, sc, 1 mg/kg, 1.00 h, 1 mg/kg s.c., n=3 mice, read-out: Plasma concentration, Mean) and 20.7 ng/mL in data set [2] (male, CD1, mouse, plasma, sc, 1 mg/kg, 1.00 h, 1 mg/kg s.c., read-out: Plasma concentration, individual mice). In addition, the concentration at 2 h in data set [2] (male, CD1, mouse, plasma, sc, 1 mg/kg, 2.00 h, 1 mg/kg s.c., n=3 mice) turned out to be 10.8 ng/mL. Also, the concentration at 4 h amounted to 1.6 ng/mL in data set [2] (male, CD1, mouse, plasma, sc, 1 mg/kg, 4.00 h, 1 mg/kg s.c., read-out: Plasma concentration, Mean) and 1 ng/mL in data set [2] (male, CD1, mouse, plasma, sc, 1 mg/kg, plasma, 1 mg/kg s.c. single dose, CD1 male mice, read-out: Clast). The concentration at 6 h in data set [2] (male, CD1, mouse, plasma, sc, 1 mg/kg, 6.00 h, 1 mg/kg s.c., read-out: Plasma concentration, individual mice) is 0.8 ng/mL. In data set [2] (setting [4]), the exposure AUC(0-t) – broadly, the area under the concentration-time curve up to a stated or last time point – stood at 46.7 ng·h/mL. Also, in data set [2] (setting [4]), the concentration peaked (Cmax) at 26.4 ng/mL. In addition, in data set [2] (setting [4]), the time of peak concentration (Tmax) – broadly, the time from dosing to the highest level – amounted to 60 min. Also, the half-life – broadly, the time needed for the level to fall by half in the phase considered – in data set [2] (setting [4]) is 45.5 min. The “Metabolites found in vivo” value in data set [2] (plasma after s.c. administration in mice) was 5. The Tlast in data set [2] (plasma, 1 mg/kg s.c. single dose, CD1 male mice) stood at 4.00 h. In addition, the “Myelination Index” value in data set [3] came to 144.7 ± 14.28%.
